According to PMC4710668, “Bioactivation of food genotoxicants 5-hydroxymethylfurfural and furfuryl alcohol by sulfotransferases from human, mouse and rat: a comparative study” (Archives of Toxicology, 2014):
Several values for one entry are separate records, joined by “and”; a condition that tells them apart may be missing. Identical values can stand only once.

What was measured:
Experiment in all cases: FFA sulfoconjugation assay (N6-MF-A formation with adenosine as scavenger)
Format in all cases: biochemical
rSult2b1 = target: T1, rSult2b1 (Rattus norvegicus, UniProt Q29YR5)
T1 construct: made in house; host or cells: Salmonella typhimurium TA1538 (cytosolic fraction, enzyme not purified)
T1 sequence (Q29YR5 1-340): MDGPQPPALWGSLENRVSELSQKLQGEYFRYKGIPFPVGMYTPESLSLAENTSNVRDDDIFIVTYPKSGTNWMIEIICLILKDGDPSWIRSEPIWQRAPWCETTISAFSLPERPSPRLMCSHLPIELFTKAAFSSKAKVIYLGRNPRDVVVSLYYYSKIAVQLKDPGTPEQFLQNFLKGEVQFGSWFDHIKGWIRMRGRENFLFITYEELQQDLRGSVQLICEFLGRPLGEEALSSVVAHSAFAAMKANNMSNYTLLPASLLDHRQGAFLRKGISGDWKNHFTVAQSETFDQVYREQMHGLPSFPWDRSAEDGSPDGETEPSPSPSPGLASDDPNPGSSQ
Description: (§1) Cytosolic fractions containing individual SULT forms were prepared from transgenic S. typhimurium TA1538. Table S1 in the Supplementary Material provides a summary of the thirty SULTs used in the current study together with references describing the cloning of the respective S. typhimurium TA1538 strains. The expressed SULT forms are denoted with the prefixes h, m and r for human, mouse and rat enzymes, respectively. Bacteria were grown in Luria Broth medium containing ampicillin (100 µg/ml) by stirring for 8 h at 200 revolutions/min at 37 °C. The bacterial suspensions were centrifuged at 5,000 g for 10 min. The sediments were washed twice with 25 ml of 10 mM potassium phosphate buffer (pH 7.4)/50 mM potassium chloride (KCP buffer) and centrifuged again. The pellets were taken up in 800 µl KCP buffer and sonicated thrice for 15 s with 30 s pauses in between. The soluble fraction was attained by centrifuging for 1 h at 100,000 g. The supernatants (in the following termed cytosolic preparations) were frozen at −80 °C. The protein concentrations were determined according to a bicinchoninic acid (BCA) assay protocol. The SULT concentrations in the cytosolic preparations were estimated after electrophoretic separation and immunodetection using inclusion bodies of different SULT forms as standards (Teubner et al. [2007]). The preparation of SULT inclusion bodies and the immunodetection of SULTs is described in the Supplementary Material, which also contains a representative immunoblot of different amounts of rSult1a1standard and a cytosolic preparation of S. typhimurium expressing rSult1a1 (Fig. S1).
(§2) The reaction mixtures were prepared as described for HMF. In addition, they contained 10 mM adenosine as a nucleophilic scavenger. Following incubation for 20 min at 37 °C, sulfoconjugation reactions were stopped by adding 100 µl cold methanol containing 175 fmol of [^15N5]N ^6-MF-A as the internal standard, mixed and centrifuged at 15,000 g for 10 min. The clear supernatants were subjected to UPLC-MS/MS analyses. Incubations were performed as quadruplicates. At higher concentrations, FFA reacts spontaneously with adenosine at low, but detectable, levels. To correct for the SULT-independent adduct formation, mixtures with SULT-deficient cytosols were carried along simultaneously in duplicate. Controls were subtracted from the experimental samples.
(§3) The ribonucleoside adduct N ^6-((furan-2-yl)methyl)-adenosine (N ^6-MF-A) was analyzed by isotope-dilution UPLC-MS/MS with the same system described above using a HSS T3 column (1.8 µm, 2.1 × 100 mm, Waters). Samples of 8 µl were eluted with 10 mM ammonium bicarbonate buffer, pH 8.0 (A) and methanol (B) using an 6-min gradient from 98 % solvent A to 15 % solvent A at 0.35 ml/min flow rate (Yin et al. [2013]). The electrospray interface of the mass spectrometer operated in the positive ion mode. The fragmentations of N ^6-MF-A into the aglycone cation [N ^6-((furan-2-yl)methyl)-adenine-H]^+ (m/z = 348.1 → 216.1), the cleavage of the 2-methylfuranyl cation (m/z = 348.1 → 81.0) and the release of [N ^6-methyl-adenine-H]^+ (m/z = 348.1 → 148.0) were monitored together with the corresponding fragmentations of the isotope-labeled internal standard [^15N5]N ^6-MF-A for the formation of the aglycone (m/z = 353.1 → 221.1), the 2-methylfuran cation (m/z = 353.1 → 81.0) and ^15N5-labeled N ^6-methyl-adenine (m/z = 353.1 → 153.0). The N ^6-MF-A content of the incubation mixture was calculated from the ratio of peak areas resulting from the total ion current of all three MRM signals of the analyte. For the fragmentation of N ^6-MF-A ([^15N5]N ^6-MF-A), collision energies were 20, 25 and 35 eV for the transitions m/z = 348.1 → 216.1 (m/z = 353.1 → 221.1), m/z = 348.1 → 148.0 (m/z = 353.1 → 153.0) and m/z = 348.1 → 81.0 (m/z = 353.1 → 81.0), respectively. […]

hSULT1A1 = target: T2, hSULT1A1 (Homo sapiens, UniProt P50225)
T2 construct: made in house; host or cells: Salmonella typhimurium TA1538 (cytosolic fraction, not purified)
T2 sequence (P50225 whole entry): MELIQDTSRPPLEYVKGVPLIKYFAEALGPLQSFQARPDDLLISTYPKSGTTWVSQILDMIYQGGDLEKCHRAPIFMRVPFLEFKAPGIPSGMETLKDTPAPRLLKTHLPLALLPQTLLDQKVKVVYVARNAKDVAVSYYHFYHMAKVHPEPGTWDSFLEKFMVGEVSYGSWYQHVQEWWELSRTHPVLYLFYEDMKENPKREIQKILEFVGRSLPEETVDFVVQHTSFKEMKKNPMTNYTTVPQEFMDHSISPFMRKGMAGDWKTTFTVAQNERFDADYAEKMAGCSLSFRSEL
Description: as §1, §2, §3

mSult2b1b = target: T3, mSult2b1b (Mus musculus, UniProt O35400)
T3 construct: made in house; host or cells: Salmonella typhimurium TA1538 (cytosolic fraction, enzyme not purified)
T3 sequence (O35400 1-338): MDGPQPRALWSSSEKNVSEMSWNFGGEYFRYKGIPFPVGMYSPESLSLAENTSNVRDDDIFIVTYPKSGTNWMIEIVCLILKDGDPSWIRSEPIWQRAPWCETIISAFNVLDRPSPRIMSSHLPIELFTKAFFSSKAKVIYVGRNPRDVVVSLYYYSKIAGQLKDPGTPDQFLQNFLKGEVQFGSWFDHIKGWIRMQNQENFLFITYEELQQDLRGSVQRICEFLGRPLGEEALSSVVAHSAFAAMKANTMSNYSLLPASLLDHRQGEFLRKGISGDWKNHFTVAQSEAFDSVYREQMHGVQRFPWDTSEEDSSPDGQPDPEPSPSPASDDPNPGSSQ
Description: as §1, §2, §3

rSult1c1 = target: T4, rSult1c1 (Rattus norvegicus, UniProt P50237)
T4 construct: made in house; host or cells: Salmonella typhimurium TA1538 (cytosolic fraction, enzyme not purified)
T4 sequence (P50237 whole entry): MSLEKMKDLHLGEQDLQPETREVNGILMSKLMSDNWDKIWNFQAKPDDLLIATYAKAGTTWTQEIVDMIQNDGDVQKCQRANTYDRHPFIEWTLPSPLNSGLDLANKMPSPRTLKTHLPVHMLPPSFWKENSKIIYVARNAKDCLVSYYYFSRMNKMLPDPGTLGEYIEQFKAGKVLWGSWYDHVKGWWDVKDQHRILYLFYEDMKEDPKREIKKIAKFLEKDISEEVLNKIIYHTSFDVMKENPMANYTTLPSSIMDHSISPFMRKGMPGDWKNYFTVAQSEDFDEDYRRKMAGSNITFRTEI
Description: as §1, §2, §3

hSULT1C2 = target: T5, hSULT1C2 (Homo sapiens, UniProt O75897)
T5 construct: made in house; host or cells: Salmonella typhimurium TA1538 (cytosolic fraction, not purified)
T5 sequence (O75897 whole entry): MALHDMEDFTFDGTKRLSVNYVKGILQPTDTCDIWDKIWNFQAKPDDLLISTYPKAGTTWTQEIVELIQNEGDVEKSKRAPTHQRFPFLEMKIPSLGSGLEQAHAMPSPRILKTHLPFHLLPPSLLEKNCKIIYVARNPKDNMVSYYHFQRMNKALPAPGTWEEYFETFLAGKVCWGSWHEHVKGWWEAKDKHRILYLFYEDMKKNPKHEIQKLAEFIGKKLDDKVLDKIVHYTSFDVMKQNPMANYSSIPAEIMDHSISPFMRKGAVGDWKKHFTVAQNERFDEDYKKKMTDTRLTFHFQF
Description: as §1, §2, §3

[1] = 1 mM FFA, corrected by actual SULT concentration in the cytosolic preparation

How did the “Rate of N6-MF-A formation” value (rSult2b1; 0.1 mM FFA) turn out when `OCc1ccco1` [FFA, furfuryl alcohol] was run?
The value was under 18 fmol N ^6-MF-A/mg/min.

And the “Rate of N6-MF-A formation” value (rSult2b1; 1 mM FFA)?
The value was under 20 fmol N ^6-MF-A/mg/min.

What about the “Rate of N6-MF-A formation” value (rSult2b1; 10 mM FFA) of the same compound?
The value was under 44 fmol N ^6-MF-A/mg/min.

And the “Rate of N6-MF-A formation” value (hSULT1A1; 0.1 mM FFA)?
The value was 73.5 ± 1.1 fmol N ^6-MF-A/mg/min.

What about the “Rate of N6-MF-A formation” value (hSULT1A1; 1 mM FFA) of the same compound?
Its value is 575 ± 2 fmol N ^6-MF-A/mg/min.

What about the “Rate of N6-MF-A formation (corr.)” value (hSULT1A1; [1]) of the same compound?
The value was 57,500 fmol N ^6-MF-A/mg/min and 57,500 ± 200 fmol N ^6-MF-A/mg/min.

What about the “ratio of N6-MF-A formation rate, hSULT1A1 vs hSULT1A2, 1A3, 1B1, 1C3 and 2A1” value (hSULT1A1; 1 mM FFA, corrected rates) of the same compound?
Its value is 11- to 30 fold.

And the “Rate of N6-MF-A formation” value (hSULT1A1; 10 mM FFA)?
The value was 931 ± 5 fmol N ^6-MF-A/mg/min.

What about the “Rate of N6-MF-A formation” value (mSult2b1b; 0.1 mM FFA) of the same compound?
The value was under 18 fmol N ^6-MF-A/mg/min.

What about the “Rate of N6-MF-A formation” value (mSult2b1b; 1 mM FFA) of the same compound?
The value was under 20 fmol N ^6-MF-A/mg/min.

And the “Rate of N6-MF-A formation” value (mSult2b1b; 10 mM FFA)?
The value was under 44 fmol N ^6-MF-A/mg/min.

And the “Rate of N6-MF-A formation” value (rSult1c1; 0.1 mM FFA)?
The value was under 18 fmol N ^6-MF-A/mg/min.

What about the “Rate of N6-MF-A formation” value (rSult1c1; 1 mM FFA) of the same compound?
Its value is 97.8 ± 2.3 fmol N ^6-MF-A/mg/min.

What about the “Rate of N6-MF-A formation” value (rSult1c1; 10 mM FFA) of the same compound?
The value was 492 ± 13 fmol N ^6-MF-A/mg/min.

And the “Rate of N6-MF-A formation” value (hSULT1C2; 0.1 mM FFA)?
Its value is 51.3 ± 0.8 fmol N ^6-MF-A/mg/min.

What about the “Rate of N6-MF-A formation” value (hSULT1C2; 1 mM FFA) of the same compound?
Its value is 459 ± 2 fmol N ^6-MF-A/mg/min.

What about the “Rate of N6-MF-A formation (corr.)” value (hSULT1C2; [1]) of the same compound?
The value was 45,900 fmol N ^6-MF-A/mg/min and 45,900 ± 200 fmol N ^6-MF-A/mg/min.

And the “Rate of N6-MF-A formation” value (hSULT1C2; 10 mM FFA)?
The value was 2,230 ± 10 fmol N ^6-MF-A/mg/min.
